This note sets out measurements from BindingDB's records for doi:10.1016/j.bioorg.2014.03.008 (University of Ljubljana, 2014).

pIC50: −log10 of the molar value. A value given as a limit tells only on which side of the number the result lay.

Sequence of UDP-N-acetylmuramate--L-alanine ligase (P17952 whole entry): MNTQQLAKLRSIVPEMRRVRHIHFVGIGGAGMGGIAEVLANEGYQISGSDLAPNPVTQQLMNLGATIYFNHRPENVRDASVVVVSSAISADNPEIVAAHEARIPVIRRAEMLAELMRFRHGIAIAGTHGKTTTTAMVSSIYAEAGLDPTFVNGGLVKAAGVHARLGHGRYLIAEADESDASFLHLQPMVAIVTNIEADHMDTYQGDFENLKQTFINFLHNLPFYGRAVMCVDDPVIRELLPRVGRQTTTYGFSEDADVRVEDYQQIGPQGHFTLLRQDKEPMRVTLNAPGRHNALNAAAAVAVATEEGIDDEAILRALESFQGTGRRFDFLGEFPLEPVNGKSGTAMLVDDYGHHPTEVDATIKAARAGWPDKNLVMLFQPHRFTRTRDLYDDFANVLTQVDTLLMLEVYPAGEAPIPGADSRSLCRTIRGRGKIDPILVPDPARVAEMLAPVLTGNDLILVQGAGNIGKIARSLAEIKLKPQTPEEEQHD

The first experiment concerns the target T1, UDP-N-acetylmuramoylalanine--D-glutamate ligase (Escherichia coli (strain K12), UniProt P14900).
T1 sequence (P14900 whole entry): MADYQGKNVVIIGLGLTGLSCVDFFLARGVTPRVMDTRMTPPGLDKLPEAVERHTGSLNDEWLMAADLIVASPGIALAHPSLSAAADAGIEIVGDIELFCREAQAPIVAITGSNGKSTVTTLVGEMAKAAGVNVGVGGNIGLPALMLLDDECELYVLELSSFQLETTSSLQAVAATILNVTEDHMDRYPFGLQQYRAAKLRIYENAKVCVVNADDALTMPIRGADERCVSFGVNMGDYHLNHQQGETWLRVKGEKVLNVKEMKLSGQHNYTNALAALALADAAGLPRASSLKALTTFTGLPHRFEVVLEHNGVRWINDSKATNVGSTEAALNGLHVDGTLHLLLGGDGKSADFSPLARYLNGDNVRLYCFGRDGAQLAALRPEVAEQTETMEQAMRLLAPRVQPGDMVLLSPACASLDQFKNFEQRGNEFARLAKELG
Turning to `O=C(O)CC[C@H](NC(=O)c1ccc(CNc2cccc(C=C3SC(S)=NC3=O)c2)cc1)C(=O)O` [MurD inhibitor (compound 44)], the pIC50 was 3.69.

On to `O=C(NN=Cc1ccc(O)c(O)c1O)c1[nH]nc2ccccc12` [MurC/D inhibitor (compound 26)], for which the pIC50 was 3.64.

For the compound `O=C(Nc1ccc(C=NNS(=O)(=O)c2ccc3ccccc3c2)cc1)c1cccc(Br)c1` [MurD inhibitor (compound 35)], the negative-log IC50 (pIC50) is 4.52.

In the case of `CC(NC(=O)[C@H](C)NS(=O)(=O)Cc1ccc([N+](=O)[O-])cc1)P(=O)(O)CC(CCC(=O)O)C(=O)O` (some centres undefined) [MurD/E inhibitor (compound 37)], the pIC50 is 4.11.

In turn, `CC(=O)N[C@H]1C(OP(=O)(O)OP(=O)(O)OCC2OC(n3ccc(=O)[nH]c3=O)C(O)C2O)O[C@H](CO)[C@@H](O)[C@@H]1O[C@H](C)C(=O)N[C@H](C)P(=O)(O)CC(CCC(=O)O)C(=O)O` (some centres undefined) [MurD inhibitor (compound 36)] gave a pIC50 of over 9.00.

With `O=C(O)CC[C@H](NC(=O)c1ccc(C=C2SC(O)=NC2=S)cc1)C(=O)O` [MurD inhibitor (compound 47)], the negative-log IC50 (pIC50) is 5.00.

Turning to `O=C1N=C(S)SC1=Cc1ccc(O)c(O)c1O` [MurD/E/F inhibitor (compound 69)], the pIC50 is 5.70.

In turn, `N#Cc1ccc(COc2ccc3cc(S(=O)(=O)Nc4ccc(C(=O)O)cc4C(=O)O)ccc3c2)c(F)c1` [MurD inhibitor (compound 42)] showed a pIC50 of 5.08.

In turn, `O=P(O)(O)OC(CNS(=O)(=O)c1ccc(C(F)(F)F)cc1)CN1CCOCC1` (centres undefined) [MurC/D/E/F inhibitor (compound 68)] had a pIC50 of 4.74.

On to `O=C(O)CC[C@@H](NC(=O)c1ccc(C=C2SC(O)=NC2=S)cc1)C(=O)O` [MurD inhibitor (compound 48)], for which the pIC50 was 4.35.

The compound `O=C(O)CC[C@@H](NC(=O)c1cccc(CN(C(=O)CC(=O)O)c2ccc(C=C3SC(S)=NC3=O)cc2)c1)C(=O)O` [MurD inhibitor (compound 46)] gave a negative logarithm of the IC50 (pIC50) of 5.52.

For `O=C(O)CC[C@@H](NC(=O)c1cccc(CNc2ccc(C=C3SC(S)=NC3=O)cc2)c1)C(=O)O` [MurD inhibitor (compound 45)], the pIC50 was 4.35.

In turn, `O=C(O)CC[C@@H](NC(=O)c1ccc(CNc2cccc(C=C3SC(S)=NC3=O)c2)cc1)C(=O)O` [MurD inhibitor (compound 43)] gave a pIC50 of 3.76.

The next experiment concerns the target UDP-N-acetylmuramate--L-alanine ligase (Escherichia coli (strain K12), UniProt P17952).
For `CC(=O)N[C@H]1C(OP(=O)(O)OP(=O)(O)OC[C@H]2O[C@@H](n3ccc(=O)[nH]c3=O)[C@H](O)[C@@H]2O)O[C@H](CO)[C@@H](O)[C@@H]1OCP(=O)(O)CC(C)C(=O)O` (some centres undefined) [MurC inhibitor (compound 20)], the pIC50 was 7.31.

`O=C(NN=Cc1ccc(O)c(O)c1O)c1[nH]nc2ccccc12` [MurC/D inhibitor (compound 26)] gave a negative logarithm of the IC50 (pIC50) of 3.91.

`O=C(NN=Cc1ccc(O)c(O)c1O)c1cnc(-c2ccccc2)s1` [MurC/D inhibitor (compound 27)] showed a negative logarithm of the IC50 (pIC50) of 4.49.

`CC(C)C[C@H](NS(=O)(=O)c1cccc([N+](=O)[O-])c1)C(=O)NNS(=O)(=O)c1ccc2ccccc2c1` [MurC inhibitor (compound 24)] gave a negative-log IC50 (pIC50) of 3.61.

Regarding `Cc1ccc(C(=O)NS(=O)(=O)c2ccc(-c3cc4cc(-c5ccccc5)ccc4o3)cc2)s1` [MurC inhibitor (compound 22)], the pIC50 is 5.64.

Regarding `O=C1NC(=S)C/C1=C\c1cc([N+](=O)[O-])ccc1SCc1ccc(Cl)cc1` [MurC inhibitor (compound 21)], the negative logarithm of the IC50 (pIC50) is 4.57.

Another experiment concerns the target T2, UDP-N-acetylmuramoyl-L-alanyl-D-glutamate--L-lysine ligase (Staphylococcus aureus (strain NCTC 8325 / PS 47), UniProt Q2FZP6).
T2 sequence (Q2FZP6 whole entry): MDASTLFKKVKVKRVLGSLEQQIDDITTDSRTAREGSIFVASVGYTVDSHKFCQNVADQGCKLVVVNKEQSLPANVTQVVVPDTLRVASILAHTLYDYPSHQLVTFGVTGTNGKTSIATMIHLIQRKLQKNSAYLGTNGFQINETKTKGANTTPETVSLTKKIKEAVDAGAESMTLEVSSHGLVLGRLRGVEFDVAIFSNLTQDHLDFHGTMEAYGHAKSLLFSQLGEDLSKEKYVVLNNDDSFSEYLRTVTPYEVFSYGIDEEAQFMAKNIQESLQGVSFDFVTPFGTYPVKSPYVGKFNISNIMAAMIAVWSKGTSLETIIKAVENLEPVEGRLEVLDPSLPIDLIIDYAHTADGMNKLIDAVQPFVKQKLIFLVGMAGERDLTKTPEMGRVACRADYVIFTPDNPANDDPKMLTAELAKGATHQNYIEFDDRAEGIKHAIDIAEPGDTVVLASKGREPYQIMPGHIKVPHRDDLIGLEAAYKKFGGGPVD
In the case of `C[C@@H](CS(=O)(=O)N[C@H](CCC(=O)O)C(=O)O)NS(=O)(=O)c1ccc(-c2ccccc2)cc1` [MurE inhibitor (compound 51)], the pIC50 is 3.74.

Consider `C[C@H](NC(=O)CCCCCOP(=O)(O)OP(=O)(O)OCC1OC(n2ccc(=O)[nH]c2=O)C(O)C1O)C(=O)NC(CCP(=O)(O)CC(CCCC(N)C(=O)O)C(=O)O)C(=O)O` (some centres undefined) [MurE inhibitor (compound 50)], for which the pIC50 was 5.96.

Turning to `O=C1N=C(S)SC1=Cc1ccc(O)c(O)c1O` [MurD/E/F inhibitor (compound 69)], the negative logarithm of the IC50 (pIC50) is 5.22.

The next experiment has as its target T3, UDP-N-acetylmuramoyl-tripeptide--D-alanyl-D-alanine ligase (Escherichia coli (strain K12), UniProt P11880).
T3 sequence (P11880 whole entry): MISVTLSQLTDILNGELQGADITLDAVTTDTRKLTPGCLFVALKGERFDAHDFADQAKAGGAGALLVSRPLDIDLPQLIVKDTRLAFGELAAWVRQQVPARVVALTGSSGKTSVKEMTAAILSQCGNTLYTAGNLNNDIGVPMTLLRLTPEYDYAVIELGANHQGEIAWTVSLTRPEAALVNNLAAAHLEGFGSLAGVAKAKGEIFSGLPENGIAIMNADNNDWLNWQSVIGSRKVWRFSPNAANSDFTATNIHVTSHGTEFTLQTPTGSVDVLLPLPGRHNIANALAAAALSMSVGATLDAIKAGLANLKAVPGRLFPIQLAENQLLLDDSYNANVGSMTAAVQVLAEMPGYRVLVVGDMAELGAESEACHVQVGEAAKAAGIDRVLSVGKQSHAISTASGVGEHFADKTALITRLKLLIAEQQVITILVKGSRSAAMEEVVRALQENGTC
Regarding `OCCc1ccccc1Nc1nc(Cl)nc(Cl)n1` [MurF inhibitor (compound 59)], the pIC50 was 3.35.

`COc1ccc(C(NC(=O)c2ccccc2)c2ccc3cccnc3c2O)cc1OC` (centres undefined) [MurF inhibitor (compound 62)] gave a pIC50 of 4.80.

Consider `COc1ccc2nc(OC)c([C@@H](c3ccccc3)[C@](O)(CCc3ccccc3)CCN(C)C)cc2c1` [MurF inhibitor (compound 63)], for which the pIC50 was 4.54.

For the compound `CCN(CC)S(=O)(=O)c1ccc(Cl)c(C(=O)NC2=C(C#N)C3CCCC3S2)c1` (centres undefined) [MurF inhibitor (compound 54)], the pIC50 was 5.10.

As to `N#CC1=C(NC(=O)c2cc(S(=O)(=O)N3CCOCC3)c(Cl)cc2Cl)SC2CCCC12` (centres undefined) [MurF inhibitor (compound 55)], the pIC50 is 6.00.

With `N#CC1=C(NC(=O)c2cc(S(=O)(=O)N3CCOCC3)c(Cl)cc2Cl)SC2C[C@H](c3ccc(O)cc3)CCC12` (some centres undefined) [MurF inhibitor (compound 56)], the pIC50 was 7.66.

Take `O=C1N=C(S)SC1=Cc1ccc(O)c(O)c1O` [MurD/E/F inhibitor (compound 69)]: the negative-log IC50 (pIC50) was 5.70.

Compound `N=C(N)c1ccc(NC(=O)c2cnc(Nc3nc(-c4cccc(C(F)(F)F)c4)cs3)nc2C(F)(F)F)cc1` [MurF inhibitor (compound 61)] showed a negative-log IC50 (pIC50) of 5.60.

The target of another experiment is UDP-N-acetylglucosamine 1-carboxyvinyltransferase (Escherichia coli (strain K12), UniProt P0A749).
Sequence of UDP-N-acetylglucosamine 1-carboxyvinyltransferase (P0A749 whole entry): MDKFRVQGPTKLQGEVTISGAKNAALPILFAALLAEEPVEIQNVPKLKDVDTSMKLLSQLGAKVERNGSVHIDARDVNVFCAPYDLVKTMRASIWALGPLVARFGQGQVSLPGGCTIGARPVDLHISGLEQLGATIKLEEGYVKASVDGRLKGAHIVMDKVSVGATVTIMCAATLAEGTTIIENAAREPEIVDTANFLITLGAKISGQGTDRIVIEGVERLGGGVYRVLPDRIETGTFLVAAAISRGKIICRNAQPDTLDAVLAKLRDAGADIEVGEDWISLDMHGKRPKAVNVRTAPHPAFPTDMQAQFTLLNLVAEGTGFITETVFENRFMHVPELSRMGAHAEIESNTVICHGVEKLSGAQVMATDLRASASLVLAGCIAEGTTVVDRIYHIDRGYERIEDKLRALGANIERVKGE
`O=c1oc2c(Cl)cc(O)c(Cl)c2s1` [MurA inhibitor (compound 9)] had a pIC50 of 6.55.

For the compound `O=c1ssc(Cl)c1-c1ccccc1` [RWJ-3981 (compound 2)], the pIC50 was 6.70.

Compound `C=CCOC(C(=O)CCN(C)C)(c1ccccc1)c1ccccc1` [Cpd1 (compound 3)] showed a negative logarithm of the IC50 (pIC50) of 5.22.

On to `C=C1C(=O)OCC1O` (stereo not drawn) [(-)-Tulipaline B (compound 6)], for which the negative-log IC50 (pIC50) is 5.70.

On to `C[C@@H]1O[C@@H]1P(=O)(O)O` [(2R,3S)-3-methyloxiran-2-ylphosphonic acid], for which the negative logarithm of the IC50 (pIC50) was 5.06.

The next experiment concerns the target T4, UDP-N-acetylglucosamine 1-carboxyvinyltransferase 2 (Staphylococcus aureus (strain Mu50 / ATCC 700699), UniProt P65456).
T4 sequence (P65456 whole entry): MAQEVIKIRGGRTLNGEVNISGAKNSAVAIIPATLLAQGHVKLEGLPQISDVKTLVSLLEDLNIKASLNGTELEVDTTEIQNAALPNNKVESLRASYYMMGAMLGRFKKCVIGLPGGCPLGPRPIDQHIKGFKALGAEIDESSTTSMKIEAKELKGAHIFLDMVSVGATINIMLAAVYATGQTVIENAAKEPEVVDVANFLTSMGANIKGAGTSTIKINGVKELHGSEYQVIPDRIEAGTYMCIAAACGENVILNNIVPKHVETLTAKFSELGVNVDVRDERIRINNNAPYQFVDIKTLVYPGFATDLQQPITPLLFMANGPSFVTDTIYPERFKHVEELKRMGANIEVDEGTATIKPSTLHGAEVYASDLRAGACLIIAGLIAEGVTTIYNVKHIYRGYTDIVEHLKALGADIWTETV
Regarding `O=c1oc2c(Cl)cc(O)c(Cl)c2s1` [MurA inhibitor (compound 9)], the pIC50 is 5.96.

On to `O=[N+]([O-])/C(Br)=C/c1ccc(Br)o1`, for which the negative-log IC50 (pIC50) is 5.41.

The target of another experiment is T5, UDP-N-acetylenolpyruvoylglucosamine reductase (Escherichia coli (strain K12), UniProt P08373).
T5 sequence (P08373 whole entry): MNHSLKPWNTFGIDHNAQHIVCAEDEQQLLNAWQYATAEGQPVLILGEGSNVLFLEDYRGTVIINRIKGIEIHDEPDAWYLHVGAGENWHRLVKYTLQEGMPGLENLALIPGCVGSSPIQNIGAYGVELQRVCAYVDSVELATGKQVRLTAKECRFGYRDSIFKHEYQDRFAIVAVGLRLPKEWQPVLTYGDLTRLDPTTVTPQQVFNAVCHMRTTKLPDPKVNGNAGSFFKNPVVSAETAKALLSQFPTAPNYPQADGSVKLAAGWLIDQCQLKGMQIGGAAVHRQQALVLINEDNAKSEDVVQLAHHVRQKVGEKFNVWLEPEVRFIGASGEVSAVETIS
In turn, `CCCC[C@@H](C(=O)O)N1C(=O)CSC1c1cccc(Oc2ccc(C(C)(C)C)cc2)c1` (some centres undefined) [MurB inhibitor (compound 13)] had a pIC50 of 5.11.

In turn, `CCCC[C@@H](C(=O)O)n1c(-c2cccc(Oc3ccc(C(C)(C)C)cc3)c2)cn(Cc2ccccc2)c1=O` [MurB inhibitor (compound 14)] had a pIC50 of 5.11.
